Reference: patent publication US10391150B2, “Treatments for migraine and related disorders” (The University of Chicago, priority 2011, dated 2019)
Like-named read-outs stand apart in the source and are kept apart here.

Assays:
[1] = tested on: microglia in hippocampal slice cultures; type: cell-based, rat
[2] = tested on: OS from cLTP in hippocampal slice cultures; test: OS / reactive oxygen species generated from chemical long-term potentiation (cLTP) in slice cultures; type: cell-based, rat; conditions: 3 days treatment (IFN-γ 500 U/mL; IL-11; IGF-1), compared to shams
Procedure: This beneficial effect of low-level IFN-γ is supported by results from rats. In rats, enrichment, which occurs with hippocampal learning, led to a significant elevation in hippocampal T-cells, IFN-γ and MBP.
Experiments were performed in rat hippocampal slices cultures and SD induced as previously described (Pusic et al., 2011). Results were derived from n≥3-6/group. […] This is consistent with the neural activity increase seen after SD, which mimics the hyperexcitability evident in migraine patients.
This prompted the inventors to examine whether insulin could reduce SD susceptibility by increasing CA3 pyramidal neuron bursting. The inventors induced SD trans-synaptically in rat HSC using electrical stimuli (100 μs pulses @ 10 Hz for 1 s) ranging from 1 to 10,000 nC in order to determine SD threshold in sham and experimental groups (Pusic et al., 2011). Results were based on n≥3-6/group. […] This insulin dose approximates the pharmacological levels seen in humans treated with nasal insulin. […] The inventors hypothesized that the effect of insulin occurred through IGF-1 receptor cross-talk.
The inventors use a well-accepted method for inducing cLTP in slice cultures (Kraig et al., 2010; Otmakhov et al., 2004a; Otmakhov et al., 2004b; Kopec et al., 2006). The protocol consists of raising cAMP levels and increasing synaptic activity using rolipram/forskolin applied in a Mg^2+-free Ringer's solution (36° C.) for 5 min, then allowing slices to recover in normal media.

[3] = tested on: SD in neocortex and hippocampus of anesthetized rat; test: SD threshold in vivo (0.5 M KCl injection) after nasal administration; conditions: a day after nasal treatment (IGF-1 150 μg; IL-11 1 μg; IFN-γ 50,000 units); control 1-8 nL
Procedure: Images show experimental setups for nasal administration and testing. (FIG. 7A) Nasal injection setup showing heat lamp and thermo-regulator that maintains temperature at 37° C. plus nose cone used to deliver isoflurane anesthesia. (FIG. 7B) Operator is shown administering nasal IGF-1 solution, which is performed in a fume hood to adequately vent isoflurane from nose cone. (FIG. 7C) Image illustrates standard electrophysiology setup. Anesthetized animal is placed into a standard electrophysiology holder and anesthesia maintained by a nose cone delivering 3% isoflurane in oxygen. Arterial oxygen saturation is monitored with a pulse-oximeter. Animals are warmed to 37.5° C. with a heating plate. SD is induced by progressively injecting larger volumes of 0.5 M KCl from an 8 μm diameter microelectrode. SD is registered with a second microelectrode used for DC recordings placed more caudally. After SD is evoked by a given injection pulse, the stimulating electrode is withdrawn and a volume re-injected under mineral oil. The diameter of the resultant KCl injection sphere is then measured off line using a compound microscope and the injection volume calculated. For example, in the above whole animal experiments it took 1-8 nL of 0.5 M KCl to evoke SD in control brain regions while after acute IGF-1 this amount rose to 67-109 nL. A day after IGF-1 treatment the volume needed to evoked SD was 34-48 nL. IFN-γ treatment required 338 nL of 0.5 M KCl a day after treatment and IL-11 required 67-200 nL.
Rats (FIGS. 6 and 7) are anesthetized with inhalational isoflurane and kept warm. While anesthetized, animals are placed in a supine position and 50 μL of sterile drug (i.e., IFN-γ, IGF-1, or IL-11) solution [or sterile saline vehicle (sham control)] is administered nasally by delivering 5 μL alternating between the left and right naris every 2 min over 20 minutes. Animals are given nasal drug treatments daily at the same time for 7 days before subsequent experiments. Doses for all 3 agents begin with the effective doses noted in our work using slice cultures (1×), then include others (0.1× and 10×). The inventors base this strategy on the fact that the effective culture dose for IGF-1 (40 ng/mL) closely approximates the dose used in vivo (143 μg/kg).
This approach was applied to measurement of SD threshold (FIG. 10) after treatment (FIG. 7) with nasally administered IGF-1 (150 μg), IL-11 (1 μg), IFN-γ (50,000 units), and insulin (20 μg). […] Resistance against SD was always greater in hippocampus compared to neocortex (n=4, controls; n=3, acutely after IGF-1; n=6, one day after IGF-1; n=6, one day after IL-11; n=6, one day after IFN-γ; and n=3, acutely after insulin).
Nasal administration followed by SD threshold evaluation in vivo. Vehicle or human recombinant IGF-1 (150 μg) is administered intranasally. SD threshold is established by injection of nanoliter volumes of 0.5 M KCl into neocortex or hippocampus (−2.0 mm from Bregma and 1.5 mm lateral from midline at either 750 μm or 2,800 μm into brain, respectively) using a thin-walled glass pipette and Picospritzer. Once a threshold is established, it is confirmed two more times, with an exemplary record from a vehicle-sham animal shown below. […] The diameter of the injected sphere is then measured using a compound microscope and used to calculate the injected volume, then moles of potassium. […]

## lipopolyssacharide [LPS]
[1]; slice cultures, vital imaging
  number of microglia moving long distances: significantly decreased the number of microglia moving long distances

## NC1=N[C@H](O)[C@H]2[C@H]3O[C@]4(O)O[C@@H]([C@@H](O)[C@@]2(N1)[C@@H]4O)[C@]3(O)CO [TTX, tetrodotoxin]
[1]
  number of microglia moving long distances: significantly increased the number of microglia moving long distances

B1: Interleukin 11 (protein, listed as Homo sapiens)
chain: MNCVCRLVLVVLSLWPDTAVAPGPPPGPPRVSPDPRAELDSTVLLTRSLLADTRQLAAQLRDKFPADGDHNLDSLPTLAMSAGALGALQLPGVLTRLRADLLSYLRHVQWLRRAGGSSLKTLEPELGTLQARLDRLLRRLQLLMSRLALPQPPPDPPAPPLAPPSSAWGGIRAAHAILGGLHLTLDWAVRGLLLLKTRL
[2]
  OS / reactive oxygen species generated from cLTP: significantly reduced OS
[3]
  volume of 0.5 M KCl needed to evoke SD: 67 to 200 nL
